US7709507B2 (Allergan, Inc., priority 2006, dated 2010)
Like-named read-outs stand apart in the source and are kept apart here.

Legend:
Assay type in all cases: cell-based
alpha2A receptor = target: T1, alpha2A receptor (Homo sapiens, UniProt P08913); test: Receptor Selection and Amplification Technology (RSAT) assay, Alpha 2A; conditions: for Alpha 2A IA (intrinsic activity): ratio of maximal effect to that of standard full agonist brimonidine (UK14304)
T1 construct: expressed in transfected cells; host or cells: NIH-3T3 cells
T1 sequence (P08913 1-465): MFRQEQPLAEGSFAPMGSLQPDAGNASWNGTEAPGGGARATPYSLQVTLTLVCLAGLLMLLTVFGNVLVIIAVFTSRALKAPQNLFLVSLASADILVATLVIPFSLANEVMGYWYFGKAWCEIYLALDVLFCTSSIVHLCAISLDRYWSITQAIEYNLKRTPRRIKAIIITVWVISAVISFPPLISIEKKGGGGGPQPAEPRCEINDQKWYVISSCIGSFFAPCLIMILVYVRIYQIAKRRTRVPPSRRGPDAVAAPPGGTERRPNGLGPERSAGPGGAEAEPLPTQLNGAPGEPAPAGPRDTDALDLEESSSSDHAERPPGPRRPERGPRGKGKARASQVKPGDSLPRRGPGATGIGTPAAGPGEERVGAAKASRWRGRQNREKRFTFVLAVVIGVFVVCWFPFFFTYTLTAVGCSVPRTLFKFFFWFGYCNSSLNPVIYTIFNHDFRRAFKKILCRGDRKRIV
Experimental: (§1) Receptor Selection and Amplification Technology (RSAT) Assay
(§2) The RSAT assay measures a receptor-mediated loss of contact inhibition that results in selective proliferation of receptor-containing cells in a mixed population of confluent cells. The increase in cell number is assessed with an appropriate transfected marker gene such as β-galactosidase, the activity of which can be easily measured in a 96-well format. Receptors that activate the G protein, Gq, elicit this response. Alpha2 receptors, which normally couple to Gi, activate the RSAT response when coexpressed with a hybrid Gq protein that has a Gi receptor recognition domain, called Gq/i5.
(§3) NIH-3T3 cells are plated at a density of 2×10^6 cells in 15 cm dishes and maintained in Dulbecco's modified Eagle's medium supplemented with 10% calf serum. One day later, cells are cotransfected by calcium phosphate precipitation with mammalian expression plasmids encoding p-SV-β-galactosidase (5-10 μg), receptor (1-2 μg) and G protein (1-2 μg). 40 μg salmon sperm DNA may also be included in the transfection mixture. […] Cells are thawed and 100 μl added to 100 μl aliquots of various concentrations of drugs in triplicate in 96-well dishes. Incubations continue 72-96 hr at 37° C. After washing with phosphate-buffered saline, β-galactosidase enzyme activity is determined by adding 200 μl of the chromogenic substrate (consisting of 3.5 mM o-nitrophenyl-β-D-galactopyranoside and 0.5% nonidet P-40 in phosphate buffered saline), incubating overnight at 30° C. and measuring optical density at 420 nm. The absorbance is a measure of enzyme activity, which depends on cell number and reflects a receptor-mediated cell proliferation. The efficacy or intrinsic activity is calculated as a ratio of the maximal effect of the drug to the maximal effect of a standard full agonist for each receptor subtype. Brimonidine, also called UK14304, the chemical structure of which is shown below, is used as the standard agonist for the alpha2A, alpha2B and alpha2C receptors. The EC50 is the concentration at which the drug effect is half of its maximal effect.
(§4) EC50 values are nanomolar. NA stands for “not active” at concentrations less than 10 micromolar. IA stands for “intrinsic activity.”

alpha2B receptor = target: T2, alpha2B receptor (Homo sapiens, UniProt P18089); test: Receptor Selection and Amplification Technology (RSAT) assay, Alpha 2B; conditions: for EC50: transfected NIH-3T3 cells with Gq/i5, not active = at concentrations less than 10 micromolar; for Alpha 2B IA (intrinsic activity): ratio of maximal effect to that of standard full agonist brimonidine (UK14304)
T2 construct: expressed in transfected cells; host or cells: NIH-3T3 cells
T2 sequence (P18089 1-450): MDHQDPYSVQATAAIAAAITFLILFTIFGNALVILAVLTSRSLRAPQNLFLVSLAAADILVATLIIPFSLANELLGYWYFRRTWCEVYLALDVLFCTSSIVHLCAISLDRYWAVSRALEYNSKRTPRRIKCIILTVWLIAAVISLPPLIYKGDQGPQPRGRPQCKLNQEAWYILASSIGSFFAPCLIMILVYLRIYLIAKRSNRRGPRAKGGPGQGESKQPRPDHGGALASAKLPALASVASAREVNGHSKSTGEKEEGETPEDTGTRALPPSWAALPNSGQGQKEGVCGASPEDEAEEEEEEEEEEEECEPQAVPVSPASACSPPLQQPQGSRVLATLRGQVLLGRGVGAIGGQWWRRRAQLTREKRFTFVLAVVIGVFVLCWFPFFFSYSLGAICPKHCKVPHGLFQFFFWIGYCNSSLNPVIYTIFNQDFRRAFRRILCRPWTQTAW
Experimental: as §1, §2
NIH-3T3 cells are plated at a density of 2×10^6 cells in 15 cm dishes and maintained in Dulbecco's modified Eagle's medium supplemented with 10% calf serum. One day later, cells are cotransfected by calcium phosphate precipitation with mammalian expression plasmids encoding p-SV-β-galactosidase (5-10 μg), receptor (1-2 μg) and G protein (1-2 μg). 40 μg salmon sperm DNA may also be included in the transfection mixture. Fresh media is added on the following day and 1-2 days later, cells are harvested and frozen in 50 assay aliquots. Cells are thawed and 100 μl added to 100 μl aliquots of various concentrations of drugs in triplicate in 96-well dishes. Incubations continue 72-96 hr at 37° C. After washing with phosphate-buffered saline, β-galactosidase enzyme activity is determined by adding 200 μl of the chromogenic substrate (consisting of 3.5 mM o-nitrophenyl-β-D-galactopyranoside and 0.5% nonidet P-40 in phosphate buffered saline), incubating overnight at 30° C. and measuring optical density at 420 nm. The absorbance is a measure of enzyme activity, which depends on cell number and reflects a receptor-mediated cell proliferation. The efficacy or intrinsic activity is calculated as a ratio of the maximal effect of the drug to the maximal effect of a standard full agonist for each receptor subtype. Brimonidine, also called UK14304, the chemical structure of which is shown below, is used as the standard agonist for the alpha2A, alpha2B and alpha2C receptors. The EC50 is the concentration at which the drug effect is half of its maximal effect.
The results of the RSAT assay with several exemplary compounds of the invention are disclosed in Table 1 above together with the chemical formulas of these exemplary compounds. EC50 values are nanomolar. NA stands for “not active” at concentrations less than 10 micromolar. IA stands for “intrinsic activity.”

alpha2C receptor = target: T3, alpha2C receptor (Homo sapiens, UniProt P18825); test: Receptor Selection and Amplification Technology (RSAT) assay, Alpha 2C; conditions: for Alpha 2C IA (intrinsic activity): ratio of maximal effect to that of standard full agonist brimonidine (UK14304)
T3 construct: expressed in transfected cells; host or cells: NIH-3T3 cells
T3 sequence (P18825 1-462): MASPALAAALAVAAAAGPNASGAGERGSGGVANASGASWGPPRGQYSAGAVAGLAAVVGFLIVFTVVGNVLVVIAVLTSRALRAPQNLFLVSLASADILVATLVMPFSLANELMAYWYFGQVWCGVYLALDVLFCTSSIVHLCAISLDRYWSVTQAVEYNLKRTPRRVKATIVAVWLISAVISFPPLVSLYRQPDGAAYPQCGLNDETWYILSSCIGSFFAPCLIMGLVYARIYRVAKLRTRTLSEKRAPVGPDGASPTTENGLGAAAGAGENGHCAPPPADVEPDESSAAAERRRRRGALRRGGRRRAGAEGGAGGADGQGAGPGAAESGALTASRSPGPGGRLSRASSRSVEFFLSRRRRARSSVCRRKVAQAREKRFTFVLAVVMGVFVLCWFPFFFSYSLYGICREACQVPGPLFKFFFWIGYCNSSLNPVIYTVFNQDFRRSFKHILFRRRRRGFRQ
Experimental: as §1, §2, §3, §4

[1] = RSAT, transfected NIH-3T3 cells with Gq/i5, not active = at concentrations less than 10 micromolar

Row | Alpha 2A EC50 (alpha2A receptor; [1]) | EC50 (alpha2B receptor; RSAT, read-out: Alpha 2B EC50) [nM] | Alpha 2B IA (intrinsic activity) (alpha2B receptor) | Alpha 2C EC50 (alpha2C receptor; [1]) | SMILES | EC50 (alpha2B receptor; Alpha 2B EC50, RSAT) [nM] | EC50 (alpha2C receptor) [nM] | Alpha 2C IA (intrinsic activity) (alpha2C receptor) | EC50 (alpha2A receptor; RSAT, transfected NIH-3T3 cells with Gq/i5, not active = at concentrations less than 10 micromolar, read-out: Alpha 2A EC50) [nM] | Alpha 2A IA (intrinsic activity) (alpha2A receptor) | EC50 (alpha2C receptor; RSAT, transfected NIH-3T3 cells with Gq/i5, not active = at concentrations less than 10 micromolar, read-out: Alpha 2C EC50) [nM] | EC50 (alpha2A receptor) [nM]
1 | not active | 84.2 | 0.84 | not active | O=C(NCCF)NC(Cc1cccc(F)c1)c1cccc(C(F)(F)F)c1 (stereo not drawn) [1-(2-fluoro-ethyl)-3-[2-(3-fluoro-phenyl)-1-(3-trifluoromethyl-phenyl)-ethyl]-urea] | – | – | – | – | – | – | –
2 | not active | 160 | 0.77 | not active | O=C(NCCF)NC(Cc1ccccc1)c1cccc2ccccc12 (stereo not drawn) [1-(2-fluoroethyl)-3-[1-(1-naphthyl)-2-phenylethyl]urea] | – | – | – | – | – | – | –
3 | not active | 42.9 | 0.88 | not active | Cc1cccc(C(Cc2ccc(F)cc2)NC(=O)NCCF)c1 (stereo not drawn) | – | – | – | – | – | – | –
4 | not active | 606 | 0.63 | not active | O=C(NCCF)NC(Cc1ccccc1Cl)c1ccccc1 (stereo not drawn) | – | – | – | – | – | – | –
5 | not active | 611 | 1.02 | not active | O=C(NCCF)NC(Cc1cc(F)ccc1F)c1cccnc1 (stereo not drawn) [1-[2-(2,5-difluoro-phenyl)-1-pyridin-3-yl-ethyl]-3-(2-fluoro-ethyl)-urea] | – | – | – | – | – | – | –
6 | not active | 63.4 | 1.0 | not active | Cc1cccc(C(Cc2ccsc2)NC(=O)NCCF)c1 (stereo not drawn) [1-(2-Fluoro-ethyl)-3-(2-thiophen-3-yl-1-m-tolyl-ethyl)-urea] | – | – | – | – | – | – | –
7 | not active | 747 | 0.78 | not active | O=C(NCCF)NC(Cc1ccccc1F)c1cccnc1 (stereo not drawn) [1-(2-fluoro-ethyl)-3-[2-(2-fluoro-phenyl)-1-pyridin-3-yl-ethyl]-urea] | – | – | – | – | – | – | –
8 | not active | 135 | 0.87 | not active | Cc1cccc(C(Cc2ccccn2)NC(=O)NCCF)c1 (stereo not drawn) [1-(2-fluoro-ethyl)-3-(2-pyridin-2-yl-1-m-tolyl-ethyl)-urea] | – | – | – | – | – | – | –
9 | not active | 2780 | 0.49 | not active | O=C(NCCF)NC(Cc1ccc(F)cc1)c1cccnc1 (stereo not drawn) [1-(2-fluoro-ethyl)-3-[2-(4-fluoro-phenyl)-1-pyridin-3-yl-ethyl]-urea] | – | – | – | – | – | – | –
10 | not active | 218 | 0.53 | not active | Cc1ccc(C(Cc2ccccc2)NC(=O)NCCF)cc1 (stereo not drawn) [1-(2-fluoroethyl)-3-[1-(4-methylphenyl)-2-phenylethyl]urea] | – | – | – | – | – | – | –
11 | not active | 13.8 | 1.02 | not active | Cc1cccc(C(Cc2ccccc2F)NC(=O)NCCF)c1 (stereo not drawn) | – | – | – | – | – | – | –
12 | not active | 640 | 0.33 | not active | O=C(NCCF)NC(Cc1ccccc1)C1CCCCC1 (stereo not drawn) [1-(1-cyclohexyl-2-phenylethyl)-3-(2-fluoroethyl)urea] | – | – | – | – | – | – | –
13 | not active | 53.2 | 0.95 | not active | Cc1cccc(C(Cc2cccnc2)NC(=O)NCCF)c1 (stereo not drawn) [1-(2-fluoro-ethyl)-3-(2-pyridin-3-yl-1-m-tolyl-ethyl)-urea] | – | – | – | – | – | – | –

Row | SMILES | Alpha 2A EC50 (alpha2A receptor; [1]) | EC50 (alpha2B receptor; RSAT, read-out: Alpha 2B EC50) [nM] | Alpha 2B IA (intrinsic activity) (alpha2B receptor) | Alpha 2C EC50 (alpha2C receptor; [1]) | EC50 (alpha2B receptor; Alpha 2B EC50, RSAT) [nM] | EC50 (alpha2C receptor) [nM] | Alpha 2C IA (intrinsic activity) (alpha2C receptor) | EC50 (alpha2A receptor; RSAT, transfected NIH-3T3 cells with Gq/i5, not active = at concentrations less than 10 micromolar, read-out: Alpha 2A EC50) [nM] | Alpha 2A IA (intrinsic activity) (alpha2A receptor) | EC50 (alpha2C receptor; RSAT, transfected NIH-3T3 cells with Gq/i5, not active = at concentrations less than 10 micromolar, read-out: Alpha 2C EC50) [nM] | EC50 (alpha2A receptor) [nM]
14 | O=C(NCCF)NC(Cc1ccccc1)c1ccccc1 (stereo not drawn) [1-(1,2-diphenyl-ethyl)-3-(2-fluoro-ethyl)-urea] | not active | – | 0.96 | – | 33.8 | 345 | 0.32 | – | – | – | –
15 | O=C(NCCF)NC(Cc1ccccc1)c1ccccc1F (stereo not drawn) | – | 103 | 0.79 | – | – | – | 0.31 | 2140 | 0.35 | 101 | –
16 | O=C(NCCF)NC(Cc1cccc(F)c1)c1ccccc1 (stereo not drawn) [N-(2-fluoroethyl)-N′-[2-(3-fluorophenyl)-1-phenylethyl]urea] | not active | 26 | 0.95 | not active | – | – | – | – | – | – | –
17 | Cc1cccc(C(Cc2ccncc2)NC(=O)NCCF)c1 (stereo not drawn) [1-(2-fluoro-ethyl)-3-(2-pyridin-4-yl-1-m-tolyl-ethyl)-urea] | – | – | 1.1 | not active | 37.7 | – | – | – | 0.44 | – | 341
18 | O=C(NCCF)NC(Cc1ccccc1)c1cccs1 (stereo not drawn) [1-(2-fluoroethyl)-3-[2-phenyl-1-(2-thienyl)ethyl]urea] | – | – | 0.99 | – | 28.5 | 119 | 0.35 | – | 0.35 | – | 346
